Assay results from EP0406111A1, “Substituted arylamines and heteroarylamines, process for their preparation and pharmaceutical composition containing them” (SOCIETE DE CONSEILS DE […] D'APPLICATIONS SCIENTIFIQUES …, priority 1989, dated 1991).
Where two headings read alike, the source gives them in different places.

Experiments:
[1] = target: T1, complexe de recapture de la dopamine (Rattus norvegicus, UniProt P23977); test: biochemical; assay type: binding; conditions: for IC50: read-out: [3H] BTCP IC50
T1 construct: expériences de compétition sur les membranes de striatum préparées comme ci-dessus; from tissue; host or cells: rat striatal membranes
T1 sequence (P23977 whole entry, one chain of several): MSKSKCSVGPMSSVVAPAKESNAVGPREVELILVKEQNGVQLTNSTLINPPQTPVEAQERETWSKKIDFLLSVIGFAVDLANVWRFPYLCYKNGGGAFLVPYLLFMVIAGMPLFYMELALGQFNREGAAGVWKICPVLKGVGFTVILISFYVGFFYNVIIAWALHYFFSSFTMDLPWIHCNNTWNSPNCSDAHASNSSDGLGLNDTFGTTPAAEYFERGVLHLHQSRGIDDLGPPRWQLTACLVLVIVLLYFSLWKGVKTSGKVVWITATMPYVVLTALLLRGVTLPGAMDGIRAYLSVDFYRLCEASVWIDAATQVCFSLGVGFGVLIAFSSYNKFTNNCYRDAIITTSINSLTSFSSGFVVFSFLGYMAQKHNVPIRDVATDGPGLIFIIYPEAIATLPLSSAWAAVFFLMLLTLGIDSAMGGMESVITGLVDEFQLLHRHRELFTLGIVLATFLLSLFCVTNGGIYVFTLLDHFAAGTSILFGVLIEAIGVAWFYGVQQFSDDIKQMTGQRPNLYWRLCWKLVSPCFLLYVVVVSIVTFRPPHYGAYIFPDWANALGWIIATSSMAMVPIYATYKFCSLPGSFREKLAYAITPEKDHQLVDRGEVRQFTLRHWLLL
Protocol: Exemple 35 : Affinité des composés pour les sites de liaison de la (³H)BTCP sur les membranes striatales de cerveaux de rats.
Les striata de cerveaux de rats rapidement disséqués dans la glace sont homogénéisés avec un ultra turax pendant 30 s (position 6) dans 50 volumes d'une solution de sucrose 0,32 M tamponnée par du Tris-HCl 10 mM à pH = 7,4. L'homogénat est centrifugé à 4°C à 1000g pendant 10 mln, puis le surnageant obtenu est centrifugé à 40000 g à 4°C pendant 30 min et les culots obtenus sont repris dans 1 ml de tampon par striatum.
L'affinité des composés pour le complexe de recapture de la dopamine est déterminée par des expériences de compétition sur les membranes de striatum préparées comme ci-dessus. Le ligand radioactif utilisé est la (³H)BTCP (Service des Molécules Marquées du CEA, Saclay France) à 55Ci/mmol.
Après 90 min à 4°C, 3 aliquots de 250 µl sont filtrés sous vide sur des filtres de fibre de verre GF/B (Whatman). La liaison non spécifique est obtenue dans des expériences parallè-les réalisées en présence de 10 µM de BTCP non marquée. Elle est soustraite de la liaison totale pour obtenir la liaison spécifique.

[2] = test system: souris Swiss; test: Locomotor activity of mice in the Boissier-Simon actimeter (Example 38); assay type: in vivo; conditions: for Activité locomotrice Variation (%) par rapport aux témoins (100%) pour la dose 10 mg/kg,i.p.: 30 min after administration, beams crossed from 20th to 35th minute; for Activité locomotrice, effect compared with BTCP: 10 mg/kg i.p.
Protocol: Exemple 38 : Mesure de l'activité locomotrice.
L'activité locomotrice de souris Swiss (mâles CD1, 25-30 g, Charles River, St Aubin lès Elbeuf, France) est mesurée dans l'actimètre Boissier-Simon (Apelex, Bagneux, France).
30 minutes après l'administration des composés à tester (10 mg/kg, i.p.), les souris sont introduites dans des cages individuelles en Plexiglass (L = 26 cm, l = 20 cm, h = 10 cm), équipées de deux cellules photoélectriques situées à 1 cm au-dessus du plancher. Chaque cellule est reliée à un compteur électromécanique. "L'activité locomotrice" correspond au nombre de rayons traversés, de la 20ème à la 35ème minute après introduction dans les cages d'actimétrie.

[3] = target: T2, capture de (³H)dopamine par les synaptosomes striataux de rat (Rattus norvegicus, UniProt P23977); test: biochemical
T2 construct: Les culots résultants P2 contenant les synaptosomes bruts sont ensuite utilisés sans purification supplémentaire; from tissue; host or cells: Wistar rat striatum, crude synaptosomes (P2 pellet)
T2 sequence (P23977 whole entry): as the sequence (P23977 whole entry, one chain of several) above
Protocol: Ce test est pratiqué selon la méthode utilisée par Vignon et Lazdunski en opérant de la façon suivante. Des rats Wistar pesant 200-250g sont tués par dislocation cervicale. Leurs cerveaux sont rapidement prélevés et les striata sont dissé-qués sur la glace. Les striata sont ensuite homogéné-isés (10 allers-retours) avec un homogénéisant Potter dans 50 volumes de tampon Tris HCl 10 mM à pH 7,4 contenant 0,32 M de sucrose. L'homogénat est ensuite centrifugé à 1000g pendant 10min à 4°C, puis le surnageant obtenu est recentrifugé à 10000g pendant 20min à 4°C. Les culots résultants P2 contenant les synaptosomes bruts sont ensuite utilisés sans purification supplémentaire.
On ajoute alors de la dopamine tritiée ((³H)DA, Amersham) à une concentration finale de 5 nM pendant 5 min à 30°C, et on interrompt sa capture par filtration de 150 µl du milieu d'incubation sur des filtres en fibres de verre GF/B (Whatman). La radioactivité retenue par les filtres est mesurée dans un compteur à scintillation liquide (LKB)avec 3 ml d'ACS (Amersham) comme scintillant. La capture non spécifique est mesurée à 4°C dans des incubations parallèles : elle est ensuite sous-traite de la capture totale mesurée à 30°C.
Les composés à tester sont solubilisés au départ dans de l'eau à une concentration de 1mM et les autres concentrations sont obtenues par des dilutions successives de cette solution mère dans l'eau.

[4] = target: T3, capture de noradrénaline (Rattus norvegicus, UniProt Q63380); test: Tritiated noradrenaline uptake by crude synaptosomal preparations of rat hypothalamus (Example 37); assay type: biochemical; conditions: rat hypothalamus synaptosomes, 50 nM tritiated noradrenaline, 10 min at 37°C; read-out: Capture 3H-NA IC₅₀
T3 construct: préparations synaptosomales brutes d'hypothalamus de rats; from tissue; host or cells: male Sprague-Dawley rat hypothalamus, crude synaptosomal fraction
T3 sequence (Q63380 1-617): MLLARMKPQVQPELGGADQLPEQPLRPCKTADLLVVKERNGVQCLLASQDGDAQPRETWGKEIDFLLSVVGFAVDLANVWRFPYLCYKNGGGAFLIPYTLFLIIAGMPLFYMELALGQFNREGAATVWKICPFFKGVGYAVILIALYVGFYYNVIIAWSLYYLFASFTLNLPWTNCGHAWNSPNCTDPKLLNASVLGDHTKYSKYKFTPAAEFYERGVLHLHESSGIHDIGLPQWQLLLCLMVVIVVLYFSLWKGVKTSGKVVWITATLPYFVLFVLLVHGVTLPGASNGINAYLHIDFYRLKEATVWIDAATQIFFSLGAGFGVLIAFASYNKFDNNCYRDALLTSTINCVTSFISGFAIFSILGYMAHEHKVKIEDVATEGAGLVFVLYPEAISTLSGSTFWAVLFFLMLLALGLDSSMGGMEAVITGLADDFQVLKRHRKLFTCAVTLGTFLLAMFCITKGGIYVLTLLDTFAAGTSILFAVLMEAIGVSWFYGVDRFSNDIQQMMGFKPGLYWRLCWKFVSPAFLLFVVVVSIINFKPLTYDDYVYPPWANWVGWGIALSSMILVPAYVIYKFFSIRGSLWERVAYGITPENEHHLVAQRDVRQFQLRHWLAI
Protocol: Exemple 37 : Mesure de la capture de noradrénaline.
La capture de noradrénaline tritiée (40 Ci/mmole) est évaluée à partir de préparations synaptosomales brutes d'hypothalamus de rats (Sprague-Dawley mâle, 200-300g, Charles River, St Aubin lès Elbeuf, France).
Les animaux sont sacrifiés par décapitation et les cerveaux sont rapidement dégagés. Les hypothalami, disséqués à 0-4°C, sont homogénéisés dans 10 volumes (poids/volume) de saccharose 0,32 M préalablement refroidi, au moyen d'un homogénéiseur type Potter-Elvejhem (clairance 80-130 µm, 800 rpm). Les débris cellulaires et le matériel nucléaire sont éliminés par centrifugation (1000 g, 10 min, 4°C). Le surnageant constitue la fraction synaptosomale brute.
Des aliquots (50 µl) de préparation synaptosomale sont préincubés pendant 5 minutes à 37°C, en présence de pargyline 20 µM, et de concentrations croissantes des composés à tester, dans […] d'un milieu Krebs-Ringer enrichi en glucose (composition en mM : NaCl 103, CaCl₂1, MgCl₂ 1, KH₂PO₄ 1, NaHCO₃ 27, acide ascorbique 0,1, glucose 5,4). A l'issue de cette préincubation, la noradrénaline tritiée (concentration finale 50 nM) est ajoutée sous un volume de 40 µl, et l'incubation est poursuivie à 37°C pendant 10 minutes. La réaction est arrêtée par dilution avec 2 ml de milieu glacé et centrifugation (7000 g, 10 minutes, 4°C). Après lavage du culot de centrifugation dans 1 ml de milieu glacé, l'échantillon est à nouveau centrifugé dans les mêmes conditions. Le culot obtenu est remis en suspension dans 250 µl d'eau distillée par sonication (Sonotrode TC 4C). 100 µl de cette suspension sont utilisés pour la mesure de la radioactivité par scintillation liquide (SL 2000, Kontron intertechniques, Trappes, France) et 50 µl pour la détermination des taux de protéines (selon la méthode de Lowry et al.).
La capture non spécifique est étudiée simultanément à 0°C en présence des différentes concentrations de composé.
La capture spécifique (capture totale - capture à 0°C) est exprimée en fentomoles/mg de protéines.
Pour chaque concentration étudiée la mesure était faite en double, 3 à 5 expériences étant pratiquées à des jours différents (préparations synaptosomales différentes). Pour chaque composé, au moins 4 concentrations ont été étudiées (entre 10⁻⁹ et 10⁻⁶M habituellement).

[5] = rat striatal membranes, 0,2 nM (3H)BTCP, 90 min at 4°C
[6] = ratio of IC50 at the PCP receptor to IC50 at the dopamine reuptake complex
[7] = rat striatal synaptosomes, 5 nM (3H)DA, 5 min at 30°C, read-out: [3H] DA IC50

| SMILES | IC50 [1, 5] [nM] | Sélectivité IC50[^3H]TCP / IC50[^3H]BTCP [1, 6] | Activité locomotrice Variation (%) par rapport aux témoins (100%) pour la dose 10 mg/kg,i.p. [2] | IC50 [3, 7] [nM] | IC50 [4] [nM] | Activité locomotrice, effect compared with BTCP [2] | Sélectivité pour le complexe de recapture de la dopamine comparé au récepteur de la PCP, result in words [1] | Sélectivité IC50[^3H]TCP / IC50[^3H]BTCP ([1]; rat) | IC50 [1] [nM] | IC50 [3] [nM] |
| --- | --- | --- | --- | --- | --- | --- | --- | --- | --- | --- |
| OC1CCN(C2(c3cc4ccccc4s3)CCCCC2)CC1 [composé 26, (benzo(b)thiophényl-2)-1( (ol-4-pipéridino)-1)-1 cyclohexane] | 15.9 | 2006 | +252±45% | – | – | – | – | – | – | – |
| BrCC1CCCN(C2(c3cc4ccccc4s3)CCCCC2)C1 (stereo not drawn) [composé n^o 10, (benzo(b)thiophényl-2)-1 ((bromométhyl-3 pipéridino)-1)-1 cyclohexane] | 34.5 | >>2898 | +30±19% | 57.1 | 196 ± 31 | – | – | – | – | – |
| CC1CCCN(C2(c3cc4ccccc4s3)CCCCC2)C1 (stereo not drawn) [composé n^o 2, (benzo(b)thiophényl-2)-1 ((méthyl-3 pipéridino)-1)-1 cyclohexane] | 13.3 | 3910 | +160±25% | 9.3 | 40 ± 0.5 | effet supérieur à celui du BTCP | – | – | – | – |
| c1ccc2oc(C3(N4CCCCC4)CCCCC3)cc2c1 [composé n^o 4, (benzo(b)furannyl-2)-1 (pipéridino-1)-1 cyclohexane] | 19.1 | 2094 | +169±19% | 33.8 | 22.2 | effet supérieur à celui du BTCP | – | – | – | – |
| C[C@H]1CC[C@@](c2cc3ccccc3s2)(N2CCCCC2)CC1 [composé n^o 21, (benzo(b)thiophényl-2)-1 c-méthyl-4-r-(pipéridino-1)-1 cyclohexane] | 6.9 | >>14493 | +175±27% | 9.4 | 16.5 | effet supérieur à celui du BTCP | très bons résultats | – | – | – |
| C[C@H]1CC[C@](c2cc3ccccc3s2)(N2CCCCC2)CC1 [composé n^o 20, (benzo(b)thiophényl-2)-1-t-méthyl-4-r-(pipéridino-1)-1 cyclohexane] | 20.7 | 5410 | +40±22% | 21.4 | 94.3 | – | – | – | – | – |
| CCCN(CCC)C1(c2cc3ccccc3s2)CCCCC1 [composé no 3, (benzo(b)thiophényl-2)-1 (dipropylamino-1)-1 cyclohexane] | 7.2 | 58889 | +53±23% | 12.9 | 22.7 | – | très bons résultats | – | – | – |
| CC1CC(C)CN(C2(c3cc4ccccc4s3)CCCCC2)C1 (stereo not drawn) [composé n^o 6, (benzo(b)thiophényl-2)-1 ((diméthyl-3,5 pipéridino)-1)-1 cyclohexane] | 12.7 | >>7874 | +84±12% | 14.9 | 12.5 | – | – | – | – | – |
| c1ccc2sc(C3(N4CCCCC4)CCCCC3)cc2c1 [BTCP, (benzo(b)thiophényl-2)-1 (pipéridino -1) cyclohexane, reference compound] | – | – | +122±12% | – | 18.3 | – | – | 2380 | 8.4 | 13.9 |
